Series [1] concerns the target T1, Sphingosine-1-phosphate lyase 1 (Homo sapiens, UniProt O95470).
T1 sequence (O95470 whole entry): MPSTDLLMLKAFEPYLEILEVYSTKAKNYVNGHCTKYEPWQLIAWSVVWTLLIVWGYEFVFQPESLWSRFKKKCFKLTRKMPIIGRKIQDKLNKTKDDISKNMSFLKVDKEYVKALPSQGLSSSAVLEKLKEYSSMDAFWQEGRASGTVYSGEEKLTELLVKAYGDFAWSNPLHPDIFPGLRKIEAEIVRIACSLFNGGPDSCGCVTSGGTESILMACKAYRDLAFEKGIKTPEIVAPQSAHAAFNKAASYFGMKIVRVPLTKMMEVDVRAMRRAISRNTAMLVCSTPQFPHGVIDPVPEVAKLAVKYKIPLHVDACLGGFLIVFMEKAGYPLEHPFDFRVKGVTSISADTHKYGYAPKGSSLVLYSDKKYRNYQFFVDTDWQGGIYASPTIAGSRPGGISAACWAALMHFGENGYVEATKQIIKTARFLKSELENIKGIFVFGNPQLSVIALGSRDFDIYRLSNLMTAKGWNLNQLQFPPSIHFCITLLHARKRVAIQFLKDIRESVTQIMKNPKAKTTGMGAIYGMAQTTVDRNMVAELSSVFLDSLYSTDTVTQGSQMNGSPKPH
Nature of the series: biochemical.
Description: Inhibition of human recombinant S1PL (62 to 568) expressed in Sf9 insect cells using S1P as substrate after 1 hr

In series [2] the target is Protein smoothened (Homo sapiens, UniProt Q99835). Nature of the series: Antagonist activity at smoothened (unknown origin).
Series [3] in a line: Blood clearance in Sprague-Dawley rat at 1 mg/kg, iv. Type of series: ADME, organism-based. On the set-up: dose 1 mg/kg, route intravenous. The following applies: whole blood.
A short description of series [4]: Half life in Sprague-Dawley rat at 1 mg/kg, iv. The class given is ADME, organism-based. On the set-up: dose 1 mg/kg, route intravenous. The following applies: in vivo.
Series [5] can be described thus: AUC (0 to infinity) in Sprague-Dawley rat at 3 mg/kg, po. The class given is ADME, organism-based, Plasma. On the set-up: time infinity, dose 3 mg/kg, route oral. The following applies: blood.
Series [6] can be described thus: Cmax in Sprague-Dawley rat at 3 mg/kg, po. Also noted: dose 3 mg/kg, route oral. The following applies: in vivo. Type of series: ADME, organism-based.
Series [7] can be described thus: Tmax in Sprague-Dawley rat at 3 mg/kg, po. Type of series: ADME, organism-based. On the set-up: dose 3 mg/kg, route oral. The following applies: in vivo.
Series [8] in a line: Oral bioavailability in Sprague-Dawley rat at 3 mg/kg. The class given is ADME, organism-based. The note with it: in vivo.
The test system of series [9] is Rattus norvegicus. Nature of the series: Reduction of peripheral CD4+ T cell level in Wistar rat at 50 mg/kg, po after 14 to 24 hrs by flow cytometry analysis. On the set-up: scale not given: the % may be the effect or the level left. Type of series: functional. (In general: Flow cytometry measures light scatter and fluorescence of single cells or particles in a stream.)

In series [10] the test system is Rattus norvegicus. Put plainly: Reduction of peripheral CD4+ and CD8+ T cell level in Wistar rat at 2 mg/kg, po administered ever 12 hrs for 4 times measured 12 hrs after last dose by flow cytometry analysis. The class given is functional. Also noted: scale not given: the % may be the effect or the level left.
Series [11] concerns Rattus norvegicus. Nature of the series: Reduction of peripheral B cell level in Wistar rat at 2 mg/kg, po administered ever 12 hrs for 4 times measured 12 hrs after last dose by flow cytometry analysis. The class given is functional. On the set-up: scale not given: the % may be the effect or the level left.
Series [12] can be described thus: Plasma concentration in Wistar rat at 2 mg/kg, po administered ever 12 hrs for 4 times measured 12 hrs after last dose. Type of series: ADME, organism-based. Also noted: dose 2 mg/kg, route oral.
A short description of series [13]: Drug level in blood of incomplete Freund's adjuvant-induced autoimmune encephalomyelitis DA rat model at 2 mg/kg, po bid administered 2 days before the induction of EAE. Type of series: organism-based. Also noted: dose 2 mg/kg, route oral. The following applies: whole blood, read-out: Drug uptake.
The nature of series [14]: Drug level in brain of incomplete Freund's adjuvant-induced autoimmune encephalomyelitis DA rat model at 2 mg/kg, po bid administered 2 days before the induction of EAE. Also noted: dose 2 mg/kg, route oral. Type of series: organism-based. The following applies: read-out: Drug uptake.
Series [15] relates to Rattus norvegicus. Nature of the series: Antiinflammatory activity in incomplete Freund's adjuvant-induced autoimmune encephalomyelitis DA rat model assessed as S1P level in lymph node at 2 mg/kg, po bid administered 2 days before the induction of EAE relative to control. Type of series: functional.
Series [16] concerns Rattus norvegicus. Nature of the series: Antiinflammatory activity in incomplete Freund's adjuvant-induced autoimmune encephalomyelitis DA rat model assessed as S1P level in brain at 2 mg/kg, po bid administered 2 days before the induction of EAE. Type of series: functional.
For series [17], the target named is T1, Sphingosine-1-phosphate lyase 1. Put plainly: Inhibition of S1PL (unknown origin).

A word on the IC50: it is the concentration needed to halve the response being measured. By clearance is commonly meant the volume of plasma or blood freed of the substance per unit of time. What is called half-life is how long it takes for the measured level to halve. What is called AUC(0-inf) is the area under the concentration-time curve extrapolated to infinity. The term Cmax denotes the highest concentration seen after dosing. As usually defined, the Tmax is the time from dosing to the highest level. For orientation: bioavailability means dose-corrected exposure relative to a reference, in per cent.

Chain of Protein smoothened (Q99835 whole entry): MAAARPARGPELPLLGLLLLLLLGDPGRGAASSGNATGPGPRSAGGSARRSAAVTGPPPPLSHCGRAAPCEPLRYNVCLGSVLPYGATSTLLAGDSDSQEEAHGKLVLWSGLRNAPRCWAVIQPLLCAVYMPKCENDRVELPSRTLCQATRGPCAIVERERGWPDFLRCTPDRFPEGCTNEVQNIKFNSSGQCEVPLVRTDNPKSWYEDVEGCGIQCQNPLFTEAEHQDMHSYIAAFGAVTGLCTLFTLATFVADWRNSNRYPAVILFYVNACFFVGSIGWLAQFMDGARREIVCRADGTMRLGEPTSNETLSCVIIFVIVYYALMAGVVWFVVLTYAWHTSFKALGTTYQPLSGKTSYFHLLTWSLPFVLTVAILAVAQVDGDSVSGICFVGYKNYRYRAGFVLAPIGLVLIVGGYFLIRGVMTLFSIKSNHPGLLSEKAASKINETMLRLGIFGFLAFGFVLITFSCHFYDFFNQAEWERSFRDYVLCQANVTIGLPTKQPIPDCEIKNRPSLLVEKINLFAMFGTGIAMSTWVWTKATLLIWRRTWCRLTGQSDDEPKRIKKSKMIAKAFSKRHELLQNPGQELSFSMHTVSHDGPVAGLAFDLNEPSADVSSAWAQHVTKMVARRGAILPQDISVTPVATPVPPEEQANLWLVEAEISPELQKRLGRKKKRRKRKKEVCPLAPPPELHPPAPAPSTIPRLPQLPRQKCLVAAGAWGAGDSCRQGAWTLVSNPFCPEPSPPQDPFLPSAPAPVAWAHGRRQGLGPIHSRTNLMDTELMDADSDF

Take `CCOC(=O)c1ccc(N2CCN(c3nnc(Cc4ccccc4)c4ccccc34)C[C@H]2C)nc1`: the midpoint of inhibition in [1], the IC50, lay at 3.4 µM.

With `C[C@@H]1CN(c2nnc(Cc3ccccc3)c3ccccc23)CCN1c1ccc(C(F)(F)F)cn1`, the half-maximal inhibitory concentration (IC50) in [1] is 30 µM. As to `C[C@@H]1CN(c2nnc(Cc3ccccc3)c3ccccc23)CCN1c1ccc([N+](=O)[O-])cn1`, in series [1], the half-inhibitory concentration (IC50) came to 0.74 µM. In turn, `C[C@@H]1CN(c2nnc(Cc3ccccc3)c3ccccc23)CCN1c1ccc(C(=O)O)cn1` showed an IC50 in [1] of over 30 µM. For `CC[C@@H]1CN(c2nnc(Cc3ccccc3)c3ccccc23)CCN1c1ccc(C#N)cn1`, in series [1], the concentration for half-maximal inhibition (IC50) is 1.7 µM. In turn, `CC(C)[C@@H]1CN(c2nnc(Cc3ccccc3)c3ccccc23)CCN1c1ccc(C#N)cn1` displayed a half-inhibitory concentration (IC50) in [1] of 2.5 µM. Still for that read-out and setting: the value for `C[C@@H]1CN(c2nnc(Cl)c3ccccc23)CCN1c1ccc(C#N)cn1` was over 30 µM; that for `C[C@@H]1CN(c2nnc(-c3ccccc3)c3ccccc23)CCN1c1ccc(C#N)cn1` was over 30 µM. `C[C@@H]1CN(c2nnc(CCc3ccccc3)c3ccccc23)CCN1c1ccc(C#N)cn1`: the midpoint of inhibition in series [1], the IC50, lay at 30 µM. For the compound `C[C@@H]1CN(c2nnc(Cc3ccccc3)c3cc(Cl)ccc23)CCN1c1ccc(C#N)cn1`, the IC50 in [1] turned out to be 2.3 µM. In the case of `C[C@@H]1CN(c2nnc(Cc3ccccc3)c3ccc(Cl)cc23)CCN1c1ccc(C#N)cn1`, the results for the concentration for half-maximal inhibition (IC50) in series [2] and in series [1] were 0.44 µM and 0.21 µM, respectively. The compound also returned a clearance in series [3] of 23 mL/min/kg. The compound also had a half-life in [4] of 9.1 h. In addition, in series [5], the AUC(0-inf) is 1.3 µM·h. Moreover, the Cmax in series [6] was found to be 99 nM. Besides, the time to peak (Tmax) in [7] came out at 5 h. The compound also registered a bioavailability in series [8] of 26%. For the same compound, the Activity was over 80% in series [9], over 95% in series [10], 70% in [11] and 2.4 pmol/mg in series [16]. This compound yielded a concentration at 12 h in series [12] of 400 nM. The concentration at 48 h was found to be 840 nM in series [13] and 610 nM in [14]. Also, in series [15], the “fold change (FC)” value is listed as 150. In series [1], `C[C@@H]1CN(c2nnc(Cc3ccccc3)c3cc(C(F)(F)F)ccc23)CCN1c1ccc(C#N)cn1` returned a half-maximal inhibitory concentration (IC50) of 12 µM. In [1], `C[C@@H]1CN(c2nnc(Cc3ccccc3)c3ccc(C(F)(F)F)cc23)CCN1c1ccc(C#N)cn1` returned a half-inhibitory concentration (IC50) of 0.1 µM. `C[C@@H]1CN(c2nnc(Cc3ccccc3)c3cc(C#N)ccc23)CCN1c1ccc(C#N)cn1`: in series [1], half-maximal inhibition (IC50) required 1.3 µM. `C[C@@H]1CN(c2nnc(Cc3ccccc3)c3ccc(C#N)cc23)CCN1c1ccc(C#N)cn1` gave an IC50 in series [2] of over 25 µM. Compound `CC(=O)c1nc([C@@H](O)[C@H](O)[C@H](O)CO)c[nH]1` yielded an IC50 in [17] of over 100 µM.

In series [1], `C[C@H]1CN(c2nnc(Cc3ccccc3)c3ccccc23)CCN1c1ccc(C#N)cn1` showed an IC50 of over 30 µM. The compound `C[C@@H]1CN(c2nnc(Cc3ccccc3)c3ccccc23)CCN1c1ccc(C#N)cn1` came in with a concentration for half-maximal inhibition (IC50) in series [1] of 2.4 µM.

In [1], `N#Cc1ccc(N2CCN(c3nnc(Cc4ccccc4)c4ccccc34)CC2)nc1` displayed a half-maximal inhibitory concentration (IC50) of over 30 µM. In [1], `N#Cc1ccc(N2CCN(c3nnc(Cc4ccccc4)c4ccccc34)CC2CO)nc1` (single isomer, unassigned) came in with an IC50 of over 30 µM. Take `CCCCCCCCc1ccc(CCC(N)(CO)CO)cc1` [FINGOLIMOD]: the IC50 in series [17] and in series [1] was 17 µM each time.

`C/C(=N\O)c1nc([C@@H](O)[C@H](O)[C@H](O)CO)c[nH]1` [LX-2931] had an IC50 in [17] of over 100 µM.

The values are drawn from ChEMBL document CHEMBL3286174, “Orally active 7-substituted (4-benzylphthalazin-1-yl)-2-methylpiperazin-1-yl]nicotinonitriles as active-site inhibitors of sphingosine 1-phosphate lyase for the treatment of multiple sclerosis” (J Med Chem, 2014).
